Test results: patent publication US6207393A, “Inhibition of intracellular signal transduction by 14-3-3-binding peptides” (Washington University, priority 1999, dated 2001)
“And” between values parts separate entries of the source, which are not always exact repeats. Equal entries are not always repeated. Where a SMILES comes first, the peptide text is derived from it. [ ]: non-standard residue; d: D form. pS = N[C@@H](COP(=O)(O)O)C(=O)O

Tests used:
14-3-3 tau [1] = molecular target: T1, 14-3-3 tau (Homo sapiens, UniProt P27348); experiment: SPR competitive inhibition of 14-3-3 tau binding to phosphorylated Raf-259 peptide; conditions: isoform tau
T1 construct: made in house; host or cells: E. coli DH5α (vector pGEX-KT)
T1 sequence (P27348 1-245): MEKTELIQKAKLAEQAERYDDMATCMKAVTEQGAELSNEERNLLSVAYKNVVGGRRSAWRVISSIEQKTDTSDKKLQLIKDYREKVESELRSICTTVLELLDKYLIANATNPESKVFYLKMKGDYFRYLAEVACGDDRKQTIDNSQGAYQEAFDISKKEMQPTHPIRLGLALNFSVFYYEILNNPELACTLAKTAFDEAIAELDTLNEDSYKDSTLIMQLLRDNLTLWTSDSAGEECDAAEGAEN
Experimental: (§1) The ability of each peptide to inhibit binding of 14-3-3 zeta to the phosphorylated peptide was then tested in a range of concentrations between 1 and 50 μM. 14-3-3 zeta was prepared according to the methods in Example 1 and binding affinities and specificities were determined using the peptides in Table 2. The 14-3-3 zeta fusion proteins (0.5-1.0 μM) were pre-incubated with a given peptide at concentrations between 1 μM and 50 μM. 14-3-3 zeta was then infused across a sensor chip surface which had been previously coupled with the phosphorylated Raf-259 peptide (SEQ ID NO: 4). IC50 values were determined by plotting the concentration of competitor peptide required to achieve a 50% reduction in equilibrium binding.
(§2) There are seven known isoforms of 14-3-3 which form homo- and heterodimers in vivo. If different isoforms of 14-3-3 could bind to proteins with distinct specificities, heterodimeric forms of 14-3-3 might function as modular linker proteins, bringing together different proteins into a single complex. We were, therefore, interested in determining whether different 14-3-3 isoforms recognize phosphoserine in a sequence specific fashion. This hypothesis was tested by expressing and purifying three other 14-3-3 isoforms, eta, beta and tau, and measuring their affinity towards the panel of phosphorylated peptides generated above. Using the Surface Plasmon Resonance method, the "on" and "off" rates for 14-3-3 binding to the phosphorylated Raf-259 peptide were calculated (Table 6).
(§3) Competitive inhibition with the mutated phosphorylated Raf-1 peptides was used to determine whether their specificities were similar (Table 7). In each case, the calculated IC50 s were very similar to those calculated for 14-3-3 zeta.

14-3-3 beta [2] = molecular target: T2, 14-3-3 beta (Homo sapiens, UniProt P31946); experiment: Surface plasmon resonance kinetics, 14-3-3 beta binding to phosphorylated Raf-259 peptide; conditions: isoform beta
T2 construct: made in house; host or cells: E. coli DH5α (vector pGEX-KT)
T2 sequence (P31946 1-246): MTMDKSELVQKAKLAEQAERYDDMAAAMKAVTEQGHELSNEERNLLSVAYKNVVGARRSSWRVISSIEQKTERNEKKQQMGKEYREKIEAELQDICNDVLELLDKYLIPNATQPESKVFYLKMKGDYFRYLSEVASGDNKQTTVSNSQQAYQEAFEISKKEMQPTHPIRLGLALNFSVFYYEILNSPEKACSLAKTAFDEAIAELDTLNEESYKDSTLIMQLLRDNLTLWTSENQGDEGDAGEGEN
Experimental: (§4) Because the surface plasmon resonance detects binding in real time, this method can be used to directly determine the rates of association (kon) and dissociation (koff). For these kinetic measurements, GST/14-3-3 fusion proteins were injected over a range of concentrations between 200 nM and 5 μM. The "on" rate, kon, was determined by calculating dR/dt for the initial linear portion of association using the Biaevaluation software (Pharmacia). Because ligand rebinding to the sensor chip can affect the "off" rate (koff, Panayotou et al. Mol Cell Biol 13:3567-76, 1993 which is incorporated by reference), we measured the "off" rate in the presence of 50 μM free ligand by using the coinject function of the Biacore. The "off" rate measured in the absence of 50 μM free ligand was approximately 10-fold lower.
as §2

14-3-3 zeta [3] = molecular target: T3, 14-3-3 zeta (Homo sapiens, UniProt P63104); experiment: Surface plasmon resonance, GST-14-3-3 zeta binding to immobilized biotinylated Raf-259 peptide (binding and kinetics); conditions: isoform zeta
T3 construct: made in house; host or cells: E. coli DH5α (vector pGEX-KT)
T3 sequence (P63104 1-245): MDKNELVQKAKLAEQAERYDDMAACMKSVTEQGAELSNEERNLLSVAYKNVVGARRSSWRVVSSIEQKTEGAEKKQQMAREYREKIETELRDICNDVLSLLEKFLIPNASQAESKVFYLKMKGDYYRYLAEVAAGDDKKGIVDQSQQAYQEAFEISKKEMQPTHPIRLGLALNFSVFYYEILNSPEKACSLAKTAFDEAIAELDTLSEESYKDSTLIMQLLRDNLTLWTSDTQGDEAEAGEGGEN
Experimental: These experiments were performed using the BIAcore 2000 (Pharmacia). The basic principles and detection methods have been reviewed previously (Jonsson et al. Biotech. 11:620-7, 1991; Jonsson et al. Ann Bio Clin 51:19-26, 1993 which are incorporated by reference). In brief, 5 μl of the biotinylated raf-259 peptide (1 nM) was immobilized onto streptavidin-coated (SA5, Pharmacia) sensor chips at a flow rate of 5 μl/min at 25° C. […] To phosphorylate the immobilized peptides, 5 U of PKA in a buffer containing 200 μM ATP in 50 μl was infused over the chip at a flow rate of 2 μl/min at 30° C.
as §4
The biotinylated, […] Raf-1 peptide (SEQ ID NO: 4) was coupled to avidin coated chip surface to study the kinetics of its binding to 14-3-3 zeta. The association rate was determined to be approximately 2.3×10^4 M^-1×s^-1 and the dissociation rate was determined to be approximately 2.8×10^-3 s^-1. To minimize the effects of protein rebinding to the surface of the sensor chip, the dissociation rate was measured in the presence of 50 μM free phosphorylated Raf-1 peptide.

14-3-3 eta [4] = molecular target: T4, 14-3-3 eta (Homo sapiens, UniProt Q04917); experiment: Surface plasmon resonance kinetics, 14-3-3 eta binding to phosphorylated Raf-259 peptide; conditions: isoform eta
T4 construct: made in house; host or cells: E. coli DH5α (vector pGEX-KT)
T4 sequence (Q04917 1-246): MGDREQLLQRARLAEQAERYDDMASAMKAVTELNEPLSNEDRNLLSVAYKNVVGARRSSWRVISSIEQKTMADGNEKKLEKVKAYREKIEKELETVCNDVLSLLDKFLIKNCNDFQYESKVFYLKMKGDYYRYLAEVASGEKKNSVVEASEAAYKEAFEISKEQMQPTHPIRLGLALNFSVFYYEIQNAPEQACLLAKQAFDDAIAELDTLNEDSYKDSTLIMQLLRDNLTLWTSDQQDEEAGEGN
Experimental: as §4, §2

14-3-3 zeta [5] = molecular target: T3, 14-3-3 zeta; experiment: SPR competitive inhibition of 14-3-3 zeta binding to chip-coupled phosphorylated Raf-259 peptide; conditions: 14-3-3 zeta 0.5-1.0 μM; competitor 1-50 μM; relative affinity only
Experimental: as §1

14-3-3 tau [6] = molecular target: T1, 14-3-3 tau; experiment: Surface plasmon resonance kinetics, 14-3-3 tau binding to phosphorylated Raf-259 peptide; conditions: isoform tau
Experimental: as §4, §2

14-3-3 eta [7] = molecular target: T4, 14-3-3 eta; experiment: SPR competitive inhibition of 14-3-3 eta binding to phosphorylated Raf-259 peptide; conditions: isoform eta
Experimental: as §1, §2, §3

14-3-3 beta [8] = molecular target: T2, 14-3-3 beta; experiment: SPR competitive inhibition of 14-3-3 beta binding to phosphorylated Raf-259 peptide; conditions: isoform beta
Experimental: as §1, §2, §3

CC(C)C[C@H](N)C(=O)N[C@@H](CO)C(=O)N[C@@H](CCC(N)=O)C(=O)N[C@@H](CCCNC(=N)N)C(=O)N[C@@H](CCC(N)=O)C(=O)N[C@@H](CCCNC(=N)N)C(=O)N[C@@H](CO)C(=O)N[C@H](C(=O)N[C@@H](COP(=O)(O)O)C(=O)N[C@H](C(=O)N1CCC[C@H]1C(=O)N[C@@H](CC(N)=O)C(=O)N[C@H](C(=O)N[C@@H](Cc1c[nH]cn1)C(=O)N[C@@H](C)C(=O)O)C(C)C)[C@@H](C)O)[C@@H](C)O [pS-Raf-259] (H-LSQRQRST[pS]TPNVHA-OH)
IC50 (14-3-3 tau [1]): 5 µM | Kd (14-3-3 beta [2]): 0.145 µM | koff (14-3-3 beta [2]): 0.0032 s⁻¹ | kon (14-3-3 beta [2]): 22000 M⁻¹ s⁻¹ | Kd (14-3-3 zeta [3]; read-out: KD): 0.122 µM | koff (14-3-3 zeta [3]; read-out: koff): 0.0028 s⁻¹ | kon (14-3-3 zeta [3]; read-out: kon): 23000 M⁻¹ s⁻¹ | Kd (14-3-3 eta [4]): 0.128 µM | koff (14-3-3 eta [4]): 0.0029 s⁻¹ | kon (14-3-3 eta [4]): 22600 M⁻¹ s⁻¹ | IC50 (14-3-3 zeta [5]): 6 µM and ~6 µM | Kd (14-3-3 tau [6]): 0.144 µM | koff (14-3-3 tau [6]): 0.0036 s⁻¹ | kon (14-3-3 tau [6]): 25000 M⁻¹ s⁻¹ | IC50 (14-3-3 eta [7]): 5 µM | IC50 (14-3-3 beta [8]): 6 µM
